Results taken from publication PMC9696974 (Pharmaceutics, 2022).
Read-outs that look alike come from different tables or passages of the source.

Columns and labels:
[1] = system: pApU (poly A-poly U, ds-RNA); assay: Thermal denaturation of pApU ds-RNA (∆Tm); format: binding; settings: I = 50 mM
Procedure: (§1) Experiments were conducted in an aqueous buffer solution (pH = 7.0 or pH= 5.0, I = 0.05 M, sodium cacodylate buffer). For the UV-Vis spectra were used Varian Cary 100 Bio spectrometer, for fluorescence spectra we used the Varian Cary Eclipse fluorimeter and for CD spectra we used the JASCO J815 spectropolarimeter, all conducted at 25.0 °C using appropriate quartz cuvettes (path length: 1 cm).
(§2) Polynucleotides were purchased as noted: poly dAdT-poly dAdT, poly dGdC-poly dGdC, poly A-poly U (ds-RNA), (Sigma-Aldrich, Schnelldorf, Germany), calf thymus (ct)-DNA (Sigma-Aldrich, Schnelldorf, Germany) and dissolved in sodium cacodylate buffer, I = 0.05 M, pH = 7.0. The ct-DNA was sonicated and filtered through a 0.45 µm filter to obtain mostly short (ca. 100 base pairs) rod-like B-helical DNA fragments. The concentration of DNA or RNA was determined spectroscopically as the c(nucleobase) using producer-provided molar extinction coefficients.
Thermal denaturation of ds-DNA, ds-RNA and their complexes with studied compounds was performed by monitoring the absorption change at 260 nm as a function of temperature. Tm values are the midpoints of the transition curves determined from the maximum of the first derivative and checked graphically by the tangent method. The ∆Tm values were calculated by subtracting the Tm of the free nucleic acid from the Tm of the complex. Every ∆Tm value here reported was the average of at least two measurements. The error in ∆Tm is ± 0.5 °C.

[2] = molecular target: GC-DNA (poly dGdC-poly dGdC); assay: Fluorimetric titration with GC-DNA, Scatchard equation; format: binding; settings: pH 7, sodium cacodylate buffer, I = 0.05 M
Procedure: as §1, §2
Fortunately, strong emission from the compounds studied allowed fluorimetric titrations to be performed at much lower concentrations of the dyes (c = 5 × 10^−8 M), thus preventing precipitation of non-methylated 1 or 2, and allowing for the collection of numerous data points at excess of DNA/RNA binding sites over c(dye). […]

WI-38 cells = assay: MTT cell viability assay, WI-38, with or without UV light; format: cell-based, human; settings: WI-38, 10 μM and 1 μM, without UV
Procedure: Cells. Commercially available from American Type Culture Collection (ATCC), human epithelial lung adenocarcinoma A549 (ATCC® CCL-185™) and human normal lung fibroblast WI-38 (ATCC® CCL-75™) were grown according to supplier’s conditions, namely in Dulbecco Modified Eagle’s Medium (DMEM, Sigma Aldrich, St. Louis, MO, USA) supplemented with 10% of fetal bovine serum (FBS, Sigma Aldrich, USA). Cells were incubated in the cell incubator (Thermo Fischer Scientific, Waltham, MA, USA) at 37 °C and 5% CO2 in a humidified atmosphere.
Cell viability assay. In order to obtain a 10 mM stock solution chemical compounds (2M, 1, and 1M) were sterilely diluted in an appropriate volume of dimethyl sulfoxide solution (DMSO, Gram-Mol, Zagreb, Croatia). Solutions were kept in the dark and stored at 4 °C. The cytotoxic effects of each compound were assayed on A549 and WI-38 cells. […] Briefly, cells were seeded in 96-well tissue culture plates and 24 h later treated with 2M, 1, or 1M in the concentration range of 10–0.1 μM. Cells treated with the same dilutions of DMSO represented the control, while cells treated only with DMEM (10% FBS) represented the negative control. […] The resulting MTT-formazan products were dissolved using DMSO, and their absorbance at 600 nm was measured using a microplate reader. […]

A549 cells = assay: Mitochondrial ROS (MitoSOX Red); format: cell-based, human; settings: A549, 1 µM plus UV irradiation, vs DMSO and 1M alone
Procedure: For measuring mitochondrial ROS, A549 cells were treated with 1 μM of the respective compound and incubated for 90 min (37 °C, 5% CO2), allowing the compound to enter to cells. Mitochondrial superoxide production was assessed with MitoSOX Red reagent (Thermo Fisher Scientific, Waltham, MA). The cells were washed with PBS and trypsinized, and then kept on ice unless otherwise specified. Cells were distributed into small tubes (3 × 10^5 cells per tube) and resuspended in 5 µM MitoSOX solution prepared in PBS. The cells were incubated on a thermomixer for 30 min at 37 °C, with shaking (300 rpm), in the dark, followed by two washes with PBS. Then, cells dyed with MitoSOX were re-suspended in 400 µL of PBS and distributed into black 96-well plates, 120 µL per well (in triplicate). A Tecan Infinite 200 fluorescence microplate reader with 485/520 and 520/590 nm excitation/emission wavelengths was used to measure MitoSOX fluorescence.

ct-DNA = system: ct-DNA; design: method as in PMID 33231335; settings: I = 50 mM, cited from earlier work
[3] = system: poly dGdC-poly dGdC (GC-DNA, p(dGdC)2) (DNA, polymer) GC; assay: fluorimetric titration, Scatchard; settings: Na+ (sodium cacodylate, I = 0.05 M); pH 7.0, 25 °C; Scatchard n fixed at 0.2 or 0.3; per base
[4] = system: poly A-poly U (AU-RNA, pApU) (RNA, polymer) A/U; assay: fluorimetric titration, Scatchard; settings: Na+ (sodium cacodylate, I = 0.05 M); pH 7.0, 25 °C; Scatchard n fixed at 0.2 or 0.3; per base
[5] = pKa from pH dependence of UV/vis spectrum; format: physicochemical; settings: water (0.001 M HCl in miliQ water, titrated with NaOH), UV/vis spectra vs pH in water, c = 2.0 × 10^−5 M
Solubility in water = format: physicochemical
[6] = r = 0.2, pH 7.0, sodium cacodylate buffer
[7] = r = 0.3, pH 7.0, sodium cacodylate buffer

Structure (SMILES) | ∆Tm pApU [1, 6] [°C] | ∆Tm pApU [1, 7] [°C] | Binding constant logKs GC-DNA [2] | Cytotoxic effect relative to A549 (WI-38 cells) | mtROS levels (MitoSOX Red) (A549 cells) | ∆Tm ct-DNA (ct-DNA; [6]) | ∆Tm ct-DNA (ct-DNA; [7]) | logKs [3] | logKs [4] | pKa [5] | Solubility in water (Solubility in water)
C[n+]1ccc(-c2cc3ccc4cccc5ccc(c2)c3c45)cc1 [1M, 2-para-N-methylpyridinium pyrene] | 3 | 3 | 7.0 | somewhat more resilient | significantly increased mtROS levels | ^c 2 °C | ^c 2 °C | 7.0 | 5.8 |  | 
C[n+]1ccc(-c2cc3ccc4cc(-c5cc[n+](C)cc5)cc5ccc(c2)c3c45)cc1 [2M] | 4 |  | 9.1 | somewhat more resilient |  |  |  | 9.1 | 8.5 |  | 
c1cc2ccc3cc(-c4ccncc4)cc4ccc(c1)c2c34 [compound 1] |  |  |  |  |  |  |  |  |  | ~5 | poorly soluble in water
